Data as given in US20200384079A1, “Compositions of Fibroblast Growth Factor LIgands and Methods of Treating Patients Undergoing Ischemia-Reperfusion Therapy” (University of Cincinnati, priority 2017, published 2020).
Entries after “also recorded” stand apart in the source; their conditions may differ. Like-named read-outs stand apart in the source and are kept apart here.

Legend:
[1] = target: FGFR3c ectodomain (extracellular ligand binding domain of FGFR3c) (UniProt P22607); assay: ITC; FGF1^ΔHBS injected into FGFR3c ectodomain in the cell
wildtype mouse hearts = assay: Ex vivo model, low-flow ischemia and reperfusion; conditions: treatment at reperfusion, mouse hearts
Description: FIGS. 12A-12B. […] Left bar is vehicle-treated and right bar is FGF2-treated wildtype mouse hearts.

[2] = Blood clotting time (tail nick); type: in vivo, rat; conditions: for Clotting time: 15 mins post treatment, single agent
Protocol: In sets of experiments, blood clotting time was detected at baseline and 15 minutes after drug treatment. In brief, a nick 1-2 mm depth was made at 5 cm and 3 cm of the proximal tail for baseline and post-drug blood clotting time, respectively; the tail nick was blotted with 4×4 gauze every 15 seconds until bleeding totally stopped, and blood clotting time was recorded from the onset of bleeding until it stopped.
Heparan sulfate proteoglycans or heparin regulates the bioavailability of FGFs. In order to develop a “cardioprotective” FGF as a therapeutic against ischemic heart disease, it was necessary to elucidate the efficacy of these cardiac FGFs in the presence of heparin treatment. Therefore, native rhFGFs (FGF 1, 2, 4, or 5) or vehicle are infused intravenously (at dose indicated above) in conjunction with unfractionated (12 units/kg/hr, i.v.) or low molecular weight heparin (enoxaparin 1 mg·kg, s.c.) during the first 15 minutes of reperfusion (FIG. 12A), and post-ischemic recovery of cardiac function and the degree of myocardial infarction is assessed. […] Unfractionated or low molecular weight heparin is administered alone during early reperfusion to elucidate the cardioprotective effects of heparins against IR injury. Whether FGF administration alters heparin activity is evaluated. To assess this potential interaction, activated clotting time (ACT) is assessed in vehicle-treated or FGF-treated groups in the absence or presence of heparin co-administration. Baseline and 15 minute post-drug treatment ACT is determined. It has been established that a heparin response occurs within 1 minute after an intravenous dose in humans and that no more time is required to achieve a predicted ACT.

trypsin = assay: Susceptibility to proteolytic degradation by trypsin (fluorescence emission); type: in vitro ADME
Protocol: Ligand bioavailability (i.e., pharmacokinetic mechanism) can be a significant pharmacological limitation for therapeutic applicability. […] Susceptibility to protease action of FGF1^ΔTS was determined by monitoring changes in fluorescence emission during degradation by trypsin, FGF1^ΔTS (20-fold increase) and FGF2 (7-fold increase) were more resistant to proteolytic degradation than the native FGF1. It remained to be elucidated as to whether these pharmacokinetic mechanisms I.e., bioavailability and/or half-life) were enhanced in vivo as well. Therefore, detection of the bioavailability and half-life of native and thermally stable mutated ligands (FGF^ΔTS) are carried out as follows: […]

[3] = test system: in vivo rat model of myocardial infarction; assay: In vivo rat ischemia-reperfusion model, infarct size (TTC); parameters: species or system Sprague Dawley rats; conditions: for effect on infarct size / cardioprotection (in words): FGF given at reperfusion with heparin co-therapy; for reduction in infarct size compared to saline/vehicle control: given i.v. at reperfusion alone (FGF 10 μg/kg; heparin 12 U/kg/hr); for effect on infarct size (in words): given at reperfusion, no heparin co-therapy
Protocol: CVR-2016-799R1 signaling and the other two sets were to evaluate the pharmacokinetic properties of native FGF1 and modified FGF1 (FGF1^ΔHBS). The first set of experiments was for the ischemia/reperfusion study in which animals were divided into six groups as follows: (1) saline group: saline treatment given intravenously for 10 minutes immediately upon reperfusion, (2) heparin group: heparin, 60 U/kg intravenous (i.v.) bolus, given immediately at reperfusion+12 U/kg/hr i.v. infusion for 120 minutes of reperfusion, (3) FGF1 group: FGF1, 10 μg/kg i.v. infusion, given for 10 minutes immediately at reperfusion, (4) FGF1+heparin: heparin, 60 U/kg bolus, given immediately upon reperfusion followed by FGF1, 10 μg/kg i.v. infusion, given for 10 minutes and 12 U/kg/hr i.v. infusion given for 110 minutes of reperfusion, (5) modified FGF1 (FGF1^ΔHBS) group: FGF1^ΔHBS, 10 μg/kg i.v. infusion, given for 10 minutes, or (6) FGF1^ΔHBS+heparin: heparin, 60 U/kg bolus, given immediately at reperfusion followed by FGF1^ΔHBS, 10 μg/kg i.v. infusion, given for 10 minutes and 12 U/kg/hr i.v. infusion for 110 minutes of reperfusion. All rats were subjected to 30 minutes of regional ischemia and 120 minutes of reperfusion. Drugs were administered at the onset of reperfusion via the jugular vein (FIG. 2A). […] A total of ninety-six rats was completed for the I/R study. Sample size for each group ranged from 9-16 depending on the power analysis. A total of thirty-five rats were excluded from the study based on the lack of cyanosis of the heart or typical elevation of the ST segment in the electrocardiogram during ischemia, and death from malignant arrhythmia. For the biodistribution or FGF1 signaling study, rats were randomly divided into six groups as described above (FIG. 2B). Following drug treatment (immediately following 15 minutes of treatment or 105 minutes post-treatment at the point which mimics the length of time of reperfusion), solid organs and blood (see sections “Tissue collection for exogenous FGF1 biodistribution” and “Cardiac preparation to detect the activation of FGF1 downstream molecules”) were collected. A total of 33 rats were used for biodistribution and FGF1 signaling studies, and 3 rats were excluded due to anesthetic overdose. Also, a total of 8 plasma samples were excluded because of hemolysis. For elimination half-life of native FGF1 and FGF1^ΔHBS, 12 rats were randomly divided into two groups and treated intraperitoneally with either FGF1 form as described in the section “Pharmacokinetic evaluation of exogenous FGF1 or FGF1^ΔHBS ”.
The in vivo I/R model was established by ligating and loosening the left anterior CVR-2016-799R1 descending artery (LAD) previously described by our laboratory. In brief, rats were anesthetized with thiobutabarbital sodium salt hydrate, Inactin® hydrate (100 mg/kg, i.p., Sigma-Aldrich), and intubated and artificially ventilated via a rodent respirator (respiratory rate: 75 strokes/minute; tidal volume: 3 mL; Model 683, Harvard, USA). The heart was exposed through a left thoracotomy and pericardiotomy, and a 6-0 silk suture was placed around the left anterior descending (LAD) coronary artery. After equilibration for 15 minutes, hearts were subjected to 30 minutes of ischemia by ligating the LAD via a snare occluder and reperfusion occurred for 120 minute via loosening the snare occluder. The appearance of cyanosis of the heart and significant ST-segment elevation in the electrocardiogram were used to verify successful ligation.
At the end of the ischemia-reperfusion injury study, the LAD was re-occluded with the suture used previously for the establishment of ischemia. 5% Evans blue dye solution was given via the jugular vein to define the area-at-risk (AAR). Then, the heart was arrested in diastole with 1 mL of 15% potassium chloride, and the animal was euthanized with an anesthetic overdose followed by a bilateral pneumothorax for removal of the heart. […]

[4] = test system: in vivo rat model of myocardial infarction; conditions: rat; for post-ischemic cardiac function (in words): given at reperfusion, no heparin co-therapy
[5] = rat, i.v.
ERK1/2 = ERK1/2 activation (phosphorylation) in left ventricle, immunoblot; type: in vivo, rat; conditions: immediately post-treatment, no FGF+heparin co-treatment
Protocol: Hearts from rats treated with saline, native FGF1 or FGF1^ΔHBS in the presence or absence of heparin were collected immediately after administration and at 120 minutes post-treatment for evaluation of downstream signaling. One-half of each snap-frozen heart was powdered and homogenized in protein extraction buffer as previously described by our laboratory. For FGFR1, 150 μg of total protein were loaded onto a 8% SDS-PAGE gel, for ERK1/2 activation, 20 μg of whole cell protein homogenate was loaded onto a 15% SDS-PAGE gel, and for PKCα and PKCδ, […] of whole cell protein homogenate was loaded onto a 10% SDS-PAGE gel and then transferred to nitrocellulose membrane. 0.1% Ponceau S in 5% acetic acid was used to examine the transfer efficiency and loading equality as described previously 43. Membranes were blocked with 5% dry milk and then incubated with primary antibody against phospho-FGFR1 (Y-654, 1:500, Cell Signaling), phospho-ERK1/2 (1:1000, Cell Signaling) or phospho-PKCα (1:500, Santa Cruz) or phospho-PKCδ (1:500, Santa Cruz) followed by incubation with HRP-conjugated secondary goat anti-rabbit antibody (1:3000, Santa Cruz Biotechnology). Membranes were stripped and reprobed with antibodies against total FGFR1 (1:500, Cell Signaling), total ERK (1:1000, BD Transduction Labs) or total PKCα (1:500, Santa Cruz) or PKCδ (1:500, Santa Cruz). Bound antibodies were visualized by ECL system. Activation is indicated as a ratio of phosphorylated protein/total protein. β-actin (1:1000, Cell Signaling) was also used as a loading control.
Construction of his-tagged native and heparin-binding modified rhFGFs as well as their expression and purification is performed as previously described using his-tagged expression vectors and nickel-nitrilotriacetic acid resin columns. […] His-tagged FGFs are detected in solid organs by ELISA (FIG. 14) both for FGF and histidine (data not shown), and immunoprecipitation (IP) followed by immunoblot and in plasma by ELISA as described previously. His-tags are widely used because they are small and rarely interfere with function, activity, or structure of target proteins. […] There is no observed difference in total ERK or FGFR1 expression between the treatment groups.

[6] = target: FGFR3c ectodomain (extracellular ligand binding domain of FGFR3c) (UniProt P22607); assay: ITC; FGF1 injected into FGFR3c ectodomain in the cell
FGF receptors = conditions: published data; cited from earlier work
[7] = rat, 30 min ischemia/120 min reperfusion, given i.v. at reperfusion alone (FGF 10 μg/kg; heparin 60 U/kg bolus + 12 U/kg/hr)

FGF1^ΔHBS (FGF1 carrying the K127D/K128Q/K133V triple mutation in its HS-binding site) (from UniProt P05230 1-155) (ligand)
Kd [1]: 432 nM

FGF2: native recombinant human fibroblast growth factor 2
cardioprotection in ex vivo model (in words) (wildtype mouse hearts): protects the heart from post-ischemic cardiac dysfunction and myocardial infarction
Clotting time [2]: 15 mins post rhFGF2 treatment: 192 +/− 120 sec (n = 5)
increase in proteolytic resistance compared to native FGF1 (trypsin): 7 fold
infarct size (% infarct, percentage of area-at-risk) ([3]; as E6 but FGF 10 μg/kg i.v. in the presence of heparin co-administration): 46%
infarct size (% infarct, percentage of area-at-risk) [3, 7]: 26%
effect on infarct size / cardioprotection (in words) ([3]; rat): significantly inhibited FGF2's reduction in infarct size
effect on infarct size / cardioprotection (in words) ([3]; rat, listed as rhFGF2): significantly inhibited rhFGF2-induced cardioprotection against MI
reduction in infarct size compared to saline/vehicle control ([3]; rat): 57%
reduction in infarct size compared to saline/vehicle control ([3]; rat, listed as RhFGF2): 70%
recovery of left ventricular (LV) developed pressure, % of baseline ([4]; FGF2 at reperfusion): 68%
post-ischemic cardiac function (in words) [4]: protects the heart from cardiac dysfunction; also recorded: improved relaxation compared to saline treatment
tissue and plasma FGF distribution (in words) ([5]; FGF with heparin co-administration): no longer targeted to the heart
tissue and plasma FGF distribution (in words) ([5]; no FGF+heparin co-treatment): increased biodistribution heart (left ventricle)
tissue and plasma FGF distribution (in words) ([5]; no FGF+heparin co-treatment, listed as native FGF2): significantly targeted to the heart

Heparin sodium [reference compound]
ERK1/2 activation (phosphorylation) in left ventricle (in words) (ERK1/2): not different than saline treatment
Clotting time [2]: 15 mins post-heparin treatment: 737 +/− 127 sec (n = 4)
blood clotting time post-treatment (in words) ([2]; baseline vs 15 minutes after drug treatment): significantly longer post-treatment than at baseline
infarct size (% infarct, percentage of area-at-risk) [3, 7]: 46%
effect on infarct size (in words) ([3]; rat): lowered infarct size but not to the degree of FGF2 treatment; also recorded: significantly reduced infarct size compared to saline
effect on infarct size (in words) ([3]; rat, listed as Heparin): reduced infarct size somewhat, but not to the degree of FGF2 treatment
reduction in infarct size compared to saline/vehicle control ([3]; rat): 31%
post-ischemic cardiac function (in words) [4]: no significant difference in post-ischemic contractility between the saline and heparin group
tissue and plasma FGF distribution (in words) ([5]; no FGF+heparin co-treatment): no difference in saline or heparin treatment with regard to FGF1 levels

bisindolylmaleimide [GF109203X, reference compound]
effect of PKC inhibitor on FGF2-induced cardioprotection (infarct size) ([3]; rat, 1 mg/kg i.v., with FGF2, 1 mg/kg): abrogates the FGF2-induced cardioprotective effects of reduced myocardial infarct size; also recorded: abolished FGF2-induced cardioprotection

native FGF1 (recombinant human fibroblast growth factor 1) (from UniProt P05230 16-155) (ligand)
Kd [6]: 704 nM

B1: FGF1^ΔTS: thermally stable mutant of FGF1 containing Q55P, S62I, and H108G FGF1-stabilizing mutations (protein, UniProt P05230 16-155, looked up, variant Q55P S62I H108G)
Fibroblast growth factor 1: FNLPPGNYKKPKLLYCSNGGHFLRILPDGTVDGTRDRSDPHIQLQLIAESVGEVYIKSTETGQYLAMDTDGLLYGSQTPNEECLFLERLEENGYNTYISKKHAEKNWFVGLKKNGSCKRGPRTHYGQKAILFLPLPVSSD
increase in proteolytic resistance compared to native FGF1 (trypsin): 20 fold
effect on infarct size (in words) ([3]; rat): marked reduction in infarct size compared to native FGF1 at the same dose; also recorded: more efficacious in reducing infarct size compared to the same dose of native FGF1
activation of FGF receptors (ERK activation, cell proliferation) (in words) (FGF receptors): greater than the native FGF1
